# Experimental data: US12465650B2, “Methods and compositions for targeting cancer cells in metastases” (THE BOARD OF REGENTS OF THE UNIVERSITY OF TEXAS SYSTEM, priority 2021, dated 2025)
# Bridge positions count the residues as written; N and C are the ends. Ends that are not written are not given here.
# Assays:
# [1] = tested on: Murine 3T3L1 preadipocytes; assay: anti-phage immunofluorescence, uptake by negative control cells; format: cell-based
# Method: (§1) Immunofluorescence for tissue and cell analysis: Immunofluorescence on cells and formalin-fixed paraffin-embedded tissue sections was performed as described Zhang et al., 2012). Primary antibodies used: rabbit anti-Fd bacteriophage (Sigma Aldrich, 1:500), rabbit anti-Asp175-cleaved Caspase3 (Cell Signaling Technology, 1:100), mouse anti-E Cadherin and mouse anti-N Cadherin (BD Biosciences, 1:100). Secondary antibodies used: donkey Alexa 488-conjugated IgG (Invitrogen, 1:300) and Cy3-conjugated IgG (Jackson ImmunoResearch, 1:300). Biotinylated peptide internalization was visualized with Cy3-conjugated streptavidin IgG (Thermo Fischer Scientific, 1:50). Nuclei were stained with Hoechst 33258 (Invitrogen, 1:2000). Tissue and cell images were acquired with a Nikon Eclipse TE2000E Widefield Fluorescence Microscope (Nikon Instruments Inc.). Image quantification included 5 random microscopic fields of view at 20× magnification. Images were processed and analyzed with ImageJ software (NIH and University of Wisconsin). Cadherin co-localization was quantified based on the previously described ImageJ software object based-approach (JACoP) methodology based on the Mander's coefficient (Bolte and Cordelieres, 2006).
# (§2) Murine 3T3L1 preadipocytes were used as a negative control and uptake was not observed for BLMP6-phage (FIG. 1C).
# [2] = tested on: 4T1.2 spontaneous metastases; assay: in vivo homing of individual phage-peptide clones, 4T1.2 model; design: species or system Balb/c mice; details: mouse
# Method: (§3) Animal experiments: Rodent studies were authorized by the Institutional Animal Care and Use Committees of UTHealth. Spontaneous cancer progression was modelled by injecting 2×10^4 4 T1.2 (mCherry+ Luciferase+) cells into the mammary fat pad of 10-week-old female Balb/c mice (Jackson Laboratory) with a 31-gauge needle. Primary tumor volume was measured weekly with calipers and calculated using the (length×width^2)/2 formula. At a tumor volume of ˜200 mm^3, mice were randomized into two cohorts and administered either vehicle (1×PBS) or cisplatin (Tocris Biosciences; 2.5 mg/kg) retro-orbitally once a week for three weeks. Metastatic progression was monitored with bioluminescence imaging. For experimental metastasis modeling in C57BL/6 mice (Jackson Laboratory), 1×10^5 B16F10 cells were intravenously injected into the tail vein and mice were used after 2 weeks. In both mice models, pulmonary metastases were observed 3 weeks post implantation. The screen for metastasis-homing peptides was performed using a 50:50 mixture of phage cyclic peptide libraries CX7C and CX8C (C: cysteine; X: any amino acid residue) provided by Erkki Koivunen (Arap et al., 2002). For every bio-panning round, a mouse with metastases (between weeks 3 and 4) was intravenously injected with 10^10 transducing units (TU) of the library. After 3 hours of circulation, the heart was perfused with 10 ml phosphate buffered saline (PBS). […] Selected phage were amplified through K91 E. coli infection and quantified via TU counting. For each round, clone enrichment was quantified based on recovery frequency among 96 phage peptide-coding inserts sequenced from PCR-amplified phage DNA (Kolonin et al., 2004). […] Radioactive uptake was measured using a Cobra II automated gamma counter (Packard) and expressed as percentage of the injected dose per gram tissue (% ID/g tissue).
# Immunofluorescence for tissue and cell analysis: Immunofluorescence on cells and formalin-fixed paraffin-embedded tissue sections was performed as described Zhang et al., 2012). […] Tissue and cell images were acquired with a Nikon Eclipse TE2000E Widefield Fluorescence Microscope (Nikon Instruments Inc.). Image quantification included 5 random microscopic fields of view at 20× magnification. Images were processed and analyzed with ImageJ software (NIH and University of Wisconsin). Cadherin co-localization was quantified based on the previously described ImageJ software object based-approach (JACoP) methodology based on the Mander's coefficient (Bolte and Cordelieres, 2006).
# (§4) Tissue biodistribution was analyzed by immunofluorescence using phage-specific antibodies. […]
# [3] = phage localization in cancer-free mice; details: mouse, in vivo
# Method: as §1, §4
# [4] = tested on: MDA-MB-231 human TNBC cells; assay: phage-peptide clone binding to human TNBC cells; format: cell-based; details: phage-displayed
# Description: as §2
# [5] = tested on: mCherry-positive metastatic tumor cells (4T1.2); assay: in vivo bio-panning of CX7C/CX8C phage-peptide library for lung metastasis-homing peptides; design: species or system Balb/c mice; details: p≤0.0001
# Method: as §3, with “implantation.” for “implantation. The screen for metastasis-homing peptides was performed using a 50:50 mixture of phage cyclic peptide libraries CX7C and CX8C (C: cysteine; X: any amino acid residue) provided by Erkki Koivunen (Arap et al., 2002). For every bio-panning round, a mouse with metastases (between weeks 3 and 4) was intravenously injected with 10^10 transducing units (TU) of the library. After 3 hours of circulation, the heart was perfused with 10 ml phosphate buffered saline (PBS).”, “tissue). […]” for “tissue).”
# [6] = tested on: 4T1, B16F10 and MDA-MB-231 cancer cells that expressed N-cadherin but not E-cadherin; assay: co-localization with cadherins in cultured cell lines; format: cell-based, murine, human; details: reduced E-Cadherin expression
# Method: Cell lines and primary cell culture: All cell lines were cultured in DMEM media (Hyclone) supplemented with penicillin-streptomycin (Gibco) and 10% fetal bovine serum (Atlas Biologicals). B16F10, MDA-MB-231, and 3T3L1 cell lines were from ATCC. 4T1.2 (4T1) cells expressing mCherry and Luciferase were a gift from S. Mani. Cisplatin-resistant 4T1.2 (4T1.2-CTX) cells were generated after treatment with cisplatin (Tocris Biosciences, 180 ng/mL).
# as §1, with “Secondary antibodies used: donkey Alexa 488-conjugated IgG (Invitrogen, 1:300) and Cy3-conjugated IgG (Jackson ImmunoResearch, 1:300). Biotinylated peptide internalization was visualized with Cy3-conjugated streptavidin IgG (Thermo Fischer Scientific, 1:50). Nuclei were stained with Hoechst 33258 (Invitrogen, 1:2000).” left out, “2006). […]” for “2006).”
# [7] = tested on: 4T1, B16F10 and MDA-MB-231 tumor cell lines; assay: trypan blue exclusion assay, tumor cell lines; format: cell-based, murine, human; details: 0.1 mM
# Method: Peptides: The exemplary Hunter-killer (HK) peptides HK-BLMP5 and HK-BLMP6 were generated as “all-D-amino acid” cysteine-cyclized peptides (Celtek Bioscience). The proteolysis-resistant peptides were synthesized as acetate salts with an amino-hexanoic acid linker (NH—(CH2)5—CO) conjugating the BLMP and the apoptotic moiety KLAKLAKKLAKLAK (KLAKLAK2): SEQ ID NO:13. Following chromatographic purification, peptides were dissolved in PBS into 10 mM aliquots and stored frozen until further use. For the homing/internalization assay, peptides were biotin-labelled using the Sulfo-NHS-LC-Biotin Kit (APExBIO). Cells were plated in 24 well plates (1×10^5 cells/well), treated. Following treatment with either HK-BLMP6 (0.1 mM) or HK-BLMP5 (0.3 mM) in 0.5 ml serum free culture media for 8 hours, cells were stained with 0.4% Trypan Blue solution (MP Biomedicals) (Daquinag et al., 2016). For radioactive studies, 1,4,7,10-[…]-N′,N″,N′″,N″″-tetra-acetic acid (DOTA) t-Bu ester was purchased from Macrocyclics (Dallas, TX) and peptides were synthesized by Bachem Americas (Torrance, CA). DOTA-peptide conjugation was performed on solid-phase using previously described protocols (Azhdarinia et al., 2011). Radiolabeling with ^67GaCl3 and HPLC determination of purity were performed according to published procedures (Hernandez Vargas et al., 2019). […]
sequence,measurement,setting,value
CEGPMYAKC (disulfide 1-9 (inferred)) [BLMP3],non-specific uptake by 3T3L1 cells compared to phage-displayed BLMP6,[1],higher non-specific uptake
CGVLPYSLC (disulfide 1-9 (inferred)) [BLMP1],non-specific uptake by 3T3L1 cells compared to phage-displayed BLMP6,[1],higher non-specific uptake
CHLSFSTAC (disulfide 1-9 (inferred)) [BLMP4],non-specific uptake by 3T3L1 cells compared to phage-displayed BLMP6,[1],higher non-specific uptake
CLRHSSKIC (disulfide 1-9 (inferred)) [BLMP5],distribution within primary 4T1.2 tumor,[2],dispersed throughout the tumor
same,localization within macro-metastases,[2],localized predominantly along the invasive edges
same,localization to lungs in cancer-free mice,[3],lack of BLMP-phage localization to lungs
same,non-specific uptake by 3T3L1 cells compared to phage-displayed BLMP6,[1],higher non-specific uptake
same,binding to MDA-MB-231 cells,[4],exhibited binding
same,enrichment in the last round of bio-panning,[5],most significant enrichment
CRAGVGRGC (disulfide 1-9 (inferred)) [BLMP6],distribution within primary 4T1.2 tumor,[2],observed selectively in a sub-population of cells associated with the vasculature
same,localization within macro-metastases,[2],abundant throughout
same,localization to lungs in cancer-free mice,[3],lack of BLMP-phage localization to lungs
same,binding to cisplatin-resistant 4T1.2 cells,[6],maintaining BLMP6 binding
same,binding to MDA-MB-231 cells,[4],exhibited binding
same,enrichment in the last round of bio-panning,[5],most significant enrichment
CSGVGIASC (disulfide 1-9 (inferred)) [BLMP2],non-specific uptake by 3T3L1 cells compared to phage-displayed BLMP6,[1],higher non-specific uptake
"KLAKLAKKLAKLAK [KLAKLAK2, untargeted apoptosis-inducing moiety]",cell death (trypan blue),[7],No cancer cell death
